From ChEMBL document CHEMBL1201862, “PubChem BioAssay data set” (2004)
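1) Cells in 96-well plates. 2) Compound, 48 h, 5 concentrations. 3) Linear interpolation between surrounding doses. 4) Unreached endpoint = highest concentration. GI50 = concentration required for 50% inhibition of growth.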 Activity calls are given as the source filed them. No stated cut-off is given here; in the data, active = GI50 up to about 1.1 µM and inactive = higher.

Legend:
Test in all cases: DTP human tumour cell line panel, 48 h
COLO 205 = tested on: COLO 205
SF-295 = tested on: SF-295
UACC-257 = tested on: UACC-257
MOLT-4 = tested on: MOLT-4
SF-539 = tested on: SF-539
MDA-MB-435 = tested on: MDA-MB-435
SK-MEL-5 = tested on: SK-MEL-5
NCI-H522 = tested on: NCI-H522
NCI/ADR-RES = tested on: NCI/ADR-RES
SW-620 = tested on: SW-620
M14 = tested on: M14
SK-MEL-2 = tested on: SK-MEL-2
UACC-62 = tested on: UACC-62
SNB-75 = tested on: SNB-75
RPMI-8226 = tested on: RPMI-8226
OVCAR-8 = tested on: OVCAR-8
OVCAR-4 = tested on: OVCAR-4
KM12 = tested on: KM12
HL-60 = tested on: HL-60
Hs-578T = tested on: Hs-578T

Measured: GI50

Nc1ccc2c(c1)C(=O)N1CCC[C@H]1C(=O)N2
inactive: COLO 205 > 100 µM | SF-295 > 100 µM | UACC-257 > 100 µM | MOLT-4 > 100 µM | SF-539 > 100 µM | MDA-MB-435 > 100 µM | SK-MEL-5 > 100 µM | NCI-H522 > 100 µM | NCI/ADR-RES > 100 µM | SW-620 > 100 µM | M14 > 100 µM | SK-MEL-2 > 100 µM | UACC-62 > 100 µM | SNB-75 > 100 µM | RPMI-8226 > 100 µM | OVCAR-8 > 100 µM | OVCAR-4 > 100 µM | KM12 > 100 µM

CC(=O)NC(CC(C)C)C(=O)NC(CC(C)C)C(=O)NC(C=O)CCCNC(=N)N (configuration not stated)
inactive: COLO 205 > 100 µM | SF-295 > 100 µM | UACC-257 > 100 µM | MOLT-4 65 µM | SF-539 > 100 µM | MDA-MB-435 > 100 µM | SK-MEL-5 > 100 µM | NCI-H522 > 100 µM | NCI/ADR-RES > 100 µM | SW-620 > 100 µM | M14 > 100 µM | SK-MEL-2 > 100 µM | UACC-62 > 100 µM | SNB-75 > 100 µM | RPMI-8226 > 100 µM | OVCAR-8 > 100 µM | OVCAR-4 > 100 µM | KM12 > 100 µM

SC[C@@H]1COC[C@H](CS)S1
inactive: COLO 205 > 100 µM | SF-295 > 100 µM | UACC-257 > 100 µM | MOLT-4 > 100 µM | SF-539 > 100 µM | MDA-MB-435 > 100 µM | SK-MEL-5 > 100 µM | NCI-H522 > 100 µM | SW-620 > 100 µM | HL-60 > 100 µM | M14 > 100 µM | UACC-62 > 100 µM | SNB-75 58.9 µM | OVCAR-8 > 100 µM | OVCAR-4 > 100 µM | KM12 > 100 µM

O=C1/C(=C\c2ccc(Cl)cc2)N=C(c2ccccc2)N1n1c(=O)cn[nH]c1=S
inactive: COLO 205 > 100 µM | SF-295 > 100 µM | UACC-257 29.5 µM | MOLT-4 18.7 µM | SF-539 > 100 µM | MDA-MB-435 30.5 µM | SK-MEL-5 21.7 µM | NCI-H522 15.8 µM | NCI/ADR-RES 45 µM | SW-620 18.1 µM | HL-60 18.2 µM | M14 > 100 µM | SK-MEL-2 > 100 µM | UACC-62 33.7 µM | RPMI-8226 18.4 µM | OVCAR-8 21.8 µM | OVCAR-4 23.6 µM | KM12 > 100 µM

N#C/N=C(/N)c1sc2nc3c(c(-c4ccc(Br)cc4)c2c1N)CCCC3
inactive: COLO 205 14.4 µM | SF-295 11.1 µM | UACC-257 28.5 µM | MOLT-4 11.7 µM | SF-539 22.1 µM | MDA-MB-435 2.73 µM | SK-MEL-5 4.37 µM | NCI/ADR-RES 21.4 µM | SW-620 43.7 µM | M14 21.8 µM | SK-MEL-2 13.2 µM | UACC-62 13.9 µM | RPMI-8226 17.1 µM | OVCAR-8 24.8 µM | OVCAR-4 3.21 µM | KM12 21.3 µM

Nc1ccc2c3c1cccc3c(=O)n1c3ccc(Cc4ccc5c(c4)nc4c6ccc(N)c7cccc(c(=O)n54)c76)cc3nc21
inactive: COLO 205 > 100 µM | SF-295 > 100 µM | UACC-257 > 100 µM | MOLT-4 > 100 µM | SF-539 > 100 µM | MDA-MB-435 > 100 µM | SK-MEL-5 > 100 µM | NCI-H522 > 100 µM | NCI/ADR-RES > 100 µM | SW-620 > 100 µM | HL-60 > 100 µM | M14 > 100 µM | SK-MEL-2 > 100 µM | UACC-62 > 100 µM | SNB-75 30.8 µM | RPMI-8226 > 100 µM | OVCAR-8 > 100 µM | OVCAR-4 > 100 µM | KM12 > 100 µM

COC(=O)c1cc(C)ccc1/C=C1\Cc2cc(C)c(C)cc2C1=O
inactive: SF-295 38.7 µM | UACC-257 > 100 µM | MOLT-4 33.1 µM | SF-539 > 100 µM | SK-MEL-5 > 100 µM | NCI-H522 > 100 µM | SW-620 > 100 µM | HL-60 > 100 µM | M14 > 100 µM | SK-MEL-2 60.3 µM | UACC-62 27.8 µM | SNB-75 17.5 µM | Hs-578T 38.8 µM | RPMI-8226 > 100 µM | OVCAR-8 > 100 µM | OVCAR-4 > 100 µM | KM12 > 100 µM

C=C1CC[C@H]2C(=O)OC(c3ccoc3)C[C@]2(C)C/C=C\C=C/1C(=O)OC (some centres not stated)
inactive: COLO 205 > 25 µM | SF-295 > 25 µM | UACC-257 > 25 µM | SF-539 > 25 µM | SK-MEL-5 > 25 µM | NCI/ADR-RES 13.2 µM | SW-620 > 25 µM | M14 > 25 µM | SK-MEL-2 > 25 µM | UACC-62 > 25 µM | SNB-75 24 µM | Hs-578T > 25 µM | OVCAR-8 > 25 µM | OVCAR-4 > 25 µM | KM12 > 25 µM

CCCCOCc1cc(CN2CCN(C)CC2)c(O)c2ncccc12
inactive: COLO 205 29.6 µM | SF-295 4.17 µM | UACC-257 21.1 µM | MOLT-4 4.79 µM | SF-539 19.4 µM | SK-MEL-5 4.02 µM | NCI-H522 26.4 µM | SW-620 9.89 µM | HL-60 2.13 µM | M14 12.5 µM | SK-MEL-2 25.3 µM | UACC-62 13.9 µM | SNB-75 52.7 µM | RPMI-8226 3.29 µM | OVCAR-8 17.8 µM | OVCAR-4 21.5 µM | KM12 21.1 µM

Cc1cccc2c1Oc1ccccc1C2NC(=O)c1ccc([N+](=O)[O-])cc1 (configuration not stated)
inactive: SF-295 > 100 µM | UACC-257 > 100 µM | MOLT-4 > 100 µM | SK-MEL-5 > 100 µM | NCI-H522 > 100 µM | NCI/ADR-RES 79.4 µM | SW-620 > 100 µM | HL-60 > 100 µM | M14 > 100 µM | SK-MEL-2 > 100 µM | UACC-62 > 100 µM | Hs-578T 29.4 µM | RPMI-8226 > 100 µM | OVCAR-8 > 100 µM | OVCAR-4 32.2 µM | KM12 > 100 µM

COc1ccc(N2C(=O)[C@@H](N=[N+]=[N-])[C@@H]2[C@H]2COC(C)(C)O2)cc1
inactive: COLO 205 > 100 µM | SF-295 > 100 µM | UACC-257 > 100 µM | MOLT-4 > 100 µM | SF-539 > 100 µM | SK-MEL-5 > 100 µM | NCI-H522 > 100 µM | SW-620 > 100 µM | HL-60 > 100 µM | M14 > 100 µM | SK-MEL-2 > 100 µM | UACC-62 75 µM | SNB-75 > 100 µM | RPMI-8226 > 100 µM | OVCAR-8 > 100 µM | OVCAR-4 > 100 µM | KM12 > 100 µM
